Reference: patent US9029384B2, “Phosphatidylinositol 3-kinase inhibitors” (Gilead Calistoga LLC, priority 2012, dated 2015)
Where two headings read alike, the source gives them in different places.

Legend:
PI3Kδ = target: T1, PI3Kδ (Homo sapiens, UniProt O00329); test: Enzymatic activity of PI3K isoforms, TR-FRET assay (PIP3 formation); assay type: biochemical; settings: PI3Kδ; TR-FRET, 2×Km ATP, 10 μM PIP2; read-out: IC50
T1 construct: made in house
Procedure, shortened: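 Recombinant heterodimeric class I PI3K; PIP3 product measured by TR-FRET competition with labelled PIP3 for Eu-GRP-1 PH domain. Reaction 30 min at 25 °C, stopped with 10 mM EDTA.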

basophils = test: Basophil activation in human whole blood (Flow2 CAST kit, CD63 positive cells); assay type: cell-based
Procedure, shortened: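 Human whole blood (K2-EDTA) preincubated 60 minutes at 37° C with compound serial dilutions or DMSO (0.3% final), then stimulated with anti-FcεRI mAb or fMLP and stained for CD63/CCR3. Percent CD63+ among ≥200 CCR3-high basophils by flow cytometry, normalized to stimulated vehicle as 100%. EC50 from four-parameter fits, geometric means in nM, concentrations corrected for reagent dilution.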

[1] = Hepatocyte stability, 1% final DMSO, 2 μM substrate (t1/2^a); assay type: in vitro ADME; settings: human, cryopreserved hepatocytes, TA with 1% final DMSO, 2 μM substrate, samples at 0, 1, 2, 4 hours; read-out: human hepatocyte t½^a
Protocol: This assay was used to evaluate the metabolic stability of test articles (TA) following incubation in cryopreserved hepatocytes by monitoring parent drug disappearance via […]. The TA with 1% final DMSO concentration was incubated with 1 million hepatocytes/ml at 2 μM substrate in duplicate. The incubation was carried out at 37° C. with 5% CO2 and saturating humidity.

[2] = Hepatocyte stability, 0.01% final DMSO, 1 μM substrate (t1/2^b); assay type: in vitro ADME; settings: human, hepatocytes, TA with 0.01% final DMSO
Protocol: Alternatively, assay reagents and/or conditions can be modified in determining the inhibitory activities to PI3K isomers. In additional studies, similar assay using TA and 0.01% final DMSO concentration were incubated with 1 million hepatocytes/mL at 1 μM substrate in duplicate. The incubation was carried out at 37° C. with 5% CO2 and saturating humidity.

[3] = Homo sapiens, basophils activated with anti-FcεRI mAb or fMLP, geometric mean
[4] = 1 μM substrate, samples at 0, 1, 3, 6 hours, read-out: human hepatocyte t½^b

T1 sequence (O00329 whole entry, canonical isoform): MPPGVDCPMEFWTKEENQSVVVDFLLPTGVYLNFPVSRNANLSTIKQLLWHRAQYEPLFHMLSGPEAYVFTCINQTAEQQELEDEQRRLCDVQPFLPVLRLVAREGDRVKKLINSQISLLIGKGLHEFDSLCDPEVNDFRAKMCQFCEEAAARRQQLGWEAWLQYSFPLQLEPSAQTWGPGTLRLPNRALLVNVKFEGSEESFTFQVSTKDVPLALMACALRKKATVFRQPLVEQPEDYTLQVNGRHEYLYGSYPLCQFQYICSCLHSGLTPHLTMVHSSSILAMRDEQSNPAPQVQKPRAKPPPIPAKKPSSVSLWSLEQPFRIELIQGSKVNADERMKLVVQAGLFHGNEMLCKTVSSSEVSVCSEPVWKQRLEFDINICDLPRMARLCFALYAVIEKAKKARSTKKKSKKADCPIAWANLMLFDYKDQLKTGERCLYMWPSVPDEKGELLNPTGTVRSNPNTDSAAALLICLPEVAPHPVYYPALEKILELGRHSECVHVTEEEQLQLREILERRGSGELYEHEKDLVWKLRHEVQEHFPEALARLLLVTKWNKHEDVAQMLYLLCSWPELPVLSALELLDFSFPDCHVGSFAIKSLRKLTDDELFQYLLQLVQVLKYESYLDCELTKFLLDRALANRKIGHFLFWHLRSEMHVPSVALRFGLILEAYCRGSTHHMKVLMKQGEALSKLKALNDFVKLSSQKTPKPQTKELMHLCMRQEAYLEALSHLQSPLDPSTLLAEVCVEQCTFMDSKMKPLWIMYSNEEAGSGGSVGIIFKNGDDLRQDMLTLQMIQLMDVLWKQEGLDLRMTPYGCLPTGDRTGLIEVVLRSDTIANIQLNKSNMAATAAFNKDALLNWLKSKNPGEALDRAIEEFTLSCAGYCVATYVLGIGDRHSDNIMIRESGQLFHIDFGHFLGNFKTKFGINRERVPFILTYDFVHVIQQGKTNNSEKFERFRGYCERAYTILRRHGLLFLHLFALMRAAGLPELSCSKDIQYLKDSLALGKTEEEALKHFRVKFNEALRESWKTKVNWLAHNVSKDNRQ
T1 sequence (P27986 whole entry partner, canonical isoform): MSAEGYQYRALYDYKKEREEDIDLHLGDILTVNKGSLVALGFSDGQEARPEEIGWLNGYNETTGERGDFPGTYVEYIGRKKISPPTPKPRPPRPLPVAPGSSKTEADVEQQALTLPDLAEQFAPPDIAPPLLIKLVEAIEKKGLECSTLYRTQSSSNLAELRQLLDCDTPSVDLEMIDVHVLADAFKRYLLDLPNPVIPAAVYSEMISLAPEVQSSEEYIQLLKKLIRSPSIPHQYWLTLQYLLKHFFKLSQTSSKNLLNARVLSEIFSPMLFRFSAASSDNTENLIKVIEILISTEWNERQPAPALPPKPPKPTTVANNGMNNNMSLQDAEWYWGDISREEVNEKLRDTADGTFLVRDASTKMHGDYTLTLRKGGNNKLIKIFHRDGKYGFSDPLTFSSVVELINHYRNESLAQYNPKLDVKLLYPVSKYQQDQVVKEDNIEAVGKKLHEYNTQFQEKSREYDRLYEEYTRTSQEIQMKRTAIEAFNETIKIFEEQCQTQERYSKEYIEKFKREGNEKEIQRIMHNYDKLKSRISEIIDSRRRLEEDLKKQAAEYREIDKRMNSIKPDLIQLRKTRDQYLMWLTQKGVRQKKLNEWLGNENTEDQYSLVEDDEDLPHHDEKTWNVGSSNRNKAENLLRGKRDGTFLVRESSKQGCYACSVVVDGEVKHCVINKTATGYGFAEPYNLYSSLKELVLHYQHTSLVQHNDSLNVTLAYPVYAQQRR

| Structure (SMILES) | IC50 (PI3Kδ) | EC50 (basophils; [3]) | half-life at 2 μM [1] | half-life at 1 μM [2, 4] | EC50 (basophils; Homo sapiens, basophil activation) | half-life at 1 μM ([2]; human hepatocytes, read-out: t1/2^b) | EC50 (basophils; basophils activated with anti-FcεRI mAb or fMLP, geometric mean) |
| --- | --- | --- | --- | --- | --- | --- | --- |
| Cc1ccc(Cl)c2c(=O)n(-c3ccccc3)c(C(C)Nc3nc(N)nc(N)c3C#N)nc12 (single isomer, unassigned) [Compound 4a] | < 1 nM | 1 to 10 nM | 6 to 10 h | – | – | – | – |
| Cc1ccc(Cl)c2c(=O)n(-c3cccc(Cl)c3)c(C(C)Nc3nc(N)nc(N)c3C#N)nc12 (single isomer, unassigned) [Compound 5a] | < 1 nM | 1 to 10 nM | 1 to 3 h | – | – | – | – |
| CC(Nc1nc(N)nc(N)c1C#N)c1nc2c(F)ccc(Cl)c2c(=O)n1-c1cc(F)cc(F)c1 (single isomer, unassigned) [Compound 15a] | < 1 nM | < 1 nM | 3 to 6 h | – | – | – | – |
| Cc1cccc2nc(C(C)Nc3nc(N)nc(N)c3C#N)n(-c3cc(F)cc(F)c3)c(=O)c12 (single isomer, unassigned) [Compound 18a] | < 1 nM | < 1 nM | 3 to 6 h | – | – | – | – |
| CCC(Nc1nc(N)nc(N)c1C#N)c1nc2cccc(C)c2c(=O)n1-c1cc(F)cc(F)c1 (single isomer, unassigned) [Compound 19a] | < 1 nM | 1 to 10 nM | 3 to 6 h | – | – | – | – |
| CC(Nc1nc(N)nc(N)c1C#N)c1nc2cccc(Cl)c2c(=O)n1-c1cc(F)cc(C#N)c1 (single isomer, unassigned) [Compound 20a] | 1 to 10 nM | 1 to 10 nM | 6 to 10 h | – | – | – | – |
| Cc1cccc2nc(C(C)Nc3nc(N)nc(N)c3C#N)n(-c3cc(F)cc(C#N)c3)c(=O)c12 (single isomer, unassigned) [Compound 24a] | 1 to 10 nM | 1 to 10 nM | 6 to 10 h | – | – | – | – |
| Cc1ccc(F)c2nc(C(C)Nc3nc(N)nc(N)c3C#N)n(-c3cc(F)cc(F)c3)c(=O)c12 (single isomer, unassigned) [Compound 25a] | < 1 nM | < 1 nM | 1 to 3 h | – | – | – | – |
| Cc1ccc(F)c2nc(C(C)Nc3nc(N)nc(N)c3C#N)n(-c3cc(F)cc(C#N)c3)c(=O)c12 (single isomer, unassigned) [Compound 31a] | 1 to 10 nM | 1 to 10 nM | 6 to 10 h | – | – | – | – |
| Cc1ccc(F)c2c(=O)n(-c3cc(F)cc(F)c3)c(C(C)Nc3nc(N)nc(N)c3C#N)nc12 (single isomer, unassigned) [Compound 35a] | 1 to 10 nM | 1 to 10 nM | 6 to 10 h | – | – | – | – |
| CC(Nc1nc(N)nc(N)c1C#N)c1nc2cccc(F)c2c(=O)n1-c1cccc(C(F)(F)F)c1 (single isomer, unassigned) [Compound 40a] | 1 to 10 nM | 1 to 10 nM | 6 to 10 h | – | – | – | – |
| CC(Nc1nc(N)nc(N)c1C#N)c1nc2cccc(Cl)c2c(=O)n1-c1cc(Cl)cc(Cl)c1 (single isomer, unassigned) [Compound 41a] | 1 to 10 nM | 10 to 50 nM | 3 to 6 h | – | – | – | – |
| CC(Nc1nc(N)nc(N)c1C#N)c1nc2cccc(Cl)c2c(=O)n1-c1cc(F)cc(Cl)c1 (single isomer, unassigned) [Compound 43a] | 1 to 10 nM | 1 to 10 nM | 3 to 6 h | – | – | – | – |
| CC(Nc1nc(N)nc(N)c1C#N)c1nc2c(F)ccc(Cl)c2c(=O)n1-c1cc(F)cc(C#N)c1 (single isomer, unassigned) [Compound 48a] | 10 to 50 nM | > 50 nM | > 10 h | – | – | – | – |
| CC(Nc1nc(N)nc(N)c1C#N)c1nc2c(Cl)ccc(Cl)c2c(=O)n1-c1ccccc1 (single isomer, unassigned) [Compound 50a] | < 1 nM | < 1 nM | 6 to 10 h | – | – | – | – |
| COc1cc(OC)cc(-n2c(C(C)Nc3nc(N)nc(N)c3C#N)nc3cccc(Cl)c3c2=O)c1 (single isomer, unassigned) [Compound 51a] | 1 to 10 nM | 1 to 10 nM | 3 to 6 h | – | – | – | – |
| CCC(Nc1nc(N)nc(N)c1C#N)c1nc2cccc(C(F)F)c2c(=O)n1-c1cc(F)cc(F)c1 (single isomer, unassigned) [Compound 53a] | 1 to 10 nM | 10 to 50 nM | > 10 h | – | – | – | – |
| CC(Nc1nc(N)nc(N)c1C#N)c1nc2cccc(Cl)c2c(=O)n1-c1cc(F)cc(C(F)F)c1 (single isomer, unassigned) [Compound 55a] | < 1 nM | 1 to 10 nM | 6 to 10 h | – | – | – | – |

| Structure (SMILES) | IC50 (PI3Kδ) | EC50 (basophils; [3]) | half-life at 2 μM [1] | half-life at 1 μM [2, 4] | EC50 (basophils; Homo sapiens, basophil activation) | half-life at 1 μM ([2]; human hepatocytes, read-out: t1/2^b) | EC50 (basophils; basophils activated with anti-FcεRI mAb or fMLP, geometric mean) |
| --- | --- | --- | --- | --- | --- | --- | --- |
| CCC(Nc1nc(N)nc(N)c1C#N)c1nc2cccc(Cl)c2c(=O)n1-c1cc(F)cc(C(F)F)c1 (single isomer, unassigned) [Compound 66a] | 1 to 10 nM | 1 to 10 nM | 3 to 6 h | – | – | – | – |
| CCC(Nc1nc(N)nc(N)c1C#N)c1nc2c(Cl)cccc2c(=O)n1-c1cc(F)cc(F)c1 (single isomer, unassigned) [Compound 72a] | 10 to 50 nM | > 50 nM | 6 to 10 h | – | – | – | – |
| Cc1ccc(Cl)c2c(=O)n(-c3cc(F)cc(F)c3)c(C(C)Nc3nc(N)nc(N)c3C#N)nc12 (single isomer, unassigned) [Compound 73a] | 1 to 10 nM | < 1 nM | 3 to 6 h | – | – | – | – |
| CC(Nc1nc(N)nc(N)c1C#N)c1nc2c(Cl)ccc(Cl)c2c(=O)n1-c1cc(F)cc(F)c1 (single isomer, unassigned) [Compound 74a] | 1 to 10 nM | < 1 nM | 3 to 6 h | – | – | – | – |
| Cc1cccc2c(=O)n(-c3cc(F)cc(F)c3)c(C(C)Nc3nc(N)nc(N)c3C#N)nc12 (single isomer, unassigned) [Compound 75a] | 1 to 10 nM | 10 to 50 nM | > 10 h | – | – | – | – |
| CC(Nc1nc(N)nc(N)c1C#N)c1nc2ccc(F)c(Cl)c2c(=O)n1-c1cccc(C#N)c1 (single isomer, unassigned) [Compound 176a] | 10 to 50 nM | 1 to 10 nM | – | > 10 h | – | – | – |
| CCC(Nc1nc(N)nc(N)c1C#N)c1nc2ccc(F)cc2c(=O)n1-c1cccc(F)c1 (single isomer, unassigned) [Compound 178a] | 1 to 10 nM | 1 to 10 nM | – | > 10 h | – | – | – |
| CCC(Nc1nc(N)nc(N)c1C#N)c1nc2cccc(F)c2c(=O)n1-c1cccc(F)c1 (single isomer, unassigned) [Compound 179a] | 1 to 10 nM | 1 to 10 nM | – | 6 to 10 h | – | – | – |
| CC(Nc1nc(N)nc(N)c1C#N)c1nc2c(F)ccc(Cl)c2c(=O)n1-c1cccc(C#N)c1 (single isomer, unassigned) [Compound 181a] | 1 to 10 nM | < 1 nM | – | 6 to 10 h | – | – | – |
| CC(Nc1nc(N)nc(N)c1C#N)c1nc2cccc(F)c2c(=O)n1-c1cccc(F)c1 (single isomer, unassigned) [Compound 182a] | 1 to 10 nM | 1 to 10 nM | – | > 10 h | < 2 nM | > 20 h | – |
| CC(Nc1nc(N)nc(N)c1C(N)=O)c1nc2cccc(Cl)c2c(=O)n1-c1ccccc1 (single isomer, unassigned) [Compound 183a] | < 1 nM | 10 to 50 nM | – | 6 to 10 h | – | – | – |
| COc1cccc(-n2c(C(C)Nc3nc(N)nc(N)c3C#N)nc3cccc(Cl)c3c2=O)c1 (single isomer, unassigned) [Compound 185a] | < 1 nM | < 1 nM | – | 1 to 3 h | – | – | – |
| Cc1ccc(C(F)F)cc1-n1c(C(C)Nc2nc(N)nc(N)c2C#N)nc2cccc(Cl)c2c1=O (single isomer, unassigned) [Compound 188a-2] | < 1 nM | – | – | 1 to 3 h | – | – | < 1 nM |
| COc1cc(C(F)F)cc(-n2c(C(C)Nc3nc(N)nc(N)c3C#N)nc3cccc(Cl)c3c2=O)c1 (single isomer, unassigned) [Compound 190a] | 1 to 10 nM | 10 to 50 nM | – | 1 to 3 h | – | – | – |
| CC(Nc1nc(N)nc(N)c1C#N)c1nc2cccc(Cl)c2c(=O)n1-c1cc(F)cc(OC(F)(F)F)c1 (single isomer, unassigned) [Compound 193a] | 1 to 10 nM | 1 to 10 nM | – | 1 to 3 h | – | – | – |
| C[C@H](Nc1nc(N)nc(N)c1C#N)c1nc2cccc(F)c2c(=O)n1-c1cccc(C(F)F)c1 [Compound 121a, (S)-2,4-diamino-6-(1-(3-(3-(difluoromethyl)phenyl)-5-fluoro-4-oxo-3,4-dihydroquinazolin-2-yl)ethylamino)pyrimidine-5-carbonitrile] | 1 to 10 nM | 1 to 10 nM | – | 3 to 6 h | – | – | – |
| C[C@H](Nc1nc(N)nc(N)c1C#N)c1nc2c(C#N)cc(F)cc2c(=O)n1-c1cccc(F)c1 [Compound 154a, (S)-2-(1-((2,6-diamino-5-cyanopyrimidin-4-yl)amino)ethyl)-6-fluoro-3-(3-fluorophenyl)-4-oxo-3,4-dihydroquinazoline-8-carbonitrile] | 1 to 10 nM | 1 to 10 nM | – | > 10 h | – | – | – |
